The values that follow come from patent US20090048247A1, “CONDENSED ISOXALINE DERIVATIVES AS INHIBITORS OF PHOSPHODIESTERASE TYPE - IV” (priority 2005, published 2009).

The test system of data set [1] is TNF-α release, human peripheral blood mononuclear cells. As to the kind of experiment: Cell Based Assay for TNF-α Release (LPS stimulation of Human PBMNC's). The conditions noted are these: PBMC, LPS 1 μg/ml, TNF-α by ELISA, comparator, 4 repetitions. As to the method:
Human whole blood was collected in vacutainer tubes containing heparin or EDTA as an anti coagulant. The blood was diluted (1:1) in sterile phosphate buffered saline and 10 ml. was carefully layered over 5 ml Ficoll Hypaque gradient (density 1.077 g/ml) in a 15 ml conical centrifuge tube. The sample was centrifuged at 3000 rpm for 25 minutes in a swing-out rotor at room temperature. After centrifugation, interface of cells were collected, diluted at least 1:5 with PBS and washed three times by centrifugation at 2500 rpm for 10 minutes at room temperature. The cells were resuspended in serum free RPMI 1640 medium at a concentration of 2 million cells/ml. Alternatively whole blood was used.
LPS stimulation of Human PBMNC's:
PBMN cells (0.1 ml; 2 million/ml) were co-incubated with 20 μl of compound (final DMSO concentration of 0.2%) for 10 min in a flat bottom 96 well microtiter plate. Compounds were dissolved in DMSO initially and diluted in medium for a final concentration of 0.2% DMSO. LPS (1 μg/ml, final concentration) was then added at a volume of 10 μl per well. After 30 min, 20 μl of fetal calf serum (final concentration of 10%) was added to each well. […] The level of TNFα in treated wells was compared with the vehicle treated controls and inhibitory potency of compound was expressed as IC50 values calculated by using Graph pad prism.

Data set [2] in a line: Solubility under the experimental conditions of the PDE-IV enzyme assay.
Protocol: The PDE-4 enzyme source used was U937 cell cytosolic fraction prepared by sonication. The enzyme reaction was carried out, with the cytosolic fraction as the enzyme source, in the presence of cAMP (1 μM) at 30° C. in the presence or absence of NCE for 45-60 min. An aliquot of this reaction mixture was taken further for the ELISA assay to determine level of cAMP in the sample. The concentration of the cAMP in the sample directly correlates with the degree of PDE-4 enzyme inhibition.

Each structure is given as a SMILES string.

For orientation: IC50 means the midpoint of a concentration-inhibition curve. A higher IC50 goes with weaker potency in that assay. On to `COc1ccc(C2CNC(=O)C2)cc1OC1CCCC1` (stereo not drawn) [rolipram], for which the half-maximal inhibitory concentration (IC50) in data set [1] is roughly 240 nM.
For the molecule `c1cc(OC2CCCC2)c(OC2CCCCCC2)cc1C1=NOC2(CCOC2)C1` (stereo not drawn) [Compound No. 119, 3-[3-(Cycloheptyloxy)-4-(cyclopentyloxy)phenyl]-1,7-dioxa-2-azaspiro[4.4]non-2-ene], in data set [2], the “solubility under the experimental conditions” value is listed as “insoluble”.
One may read the melting point as the temperature, or range, at which the solid turns liquid. In the case of `COc1ccc(C2=NO[C@]3(CCOC3)C2)cc1OC1CCCC1` [Compound No. 124, (S)-3-[3-(cyclopentyloxy)-4-methoxyphenyl]-1,7-dioxa-2-azaspiro[4.4]non-2-ene], the melting point came out at 110.5 °C.
